Experimental data published in US11524948B2, “Prodrugs of alpha-ketoglutarate, alpha-ketobutyrate, alpha-ketoisovalerate, and alpha-ketoisohexanoate, and uses thereof” (The Regents of the University of California, priority 2018, dated 2022).
“Also recorded” adds a separate entry of the source.

Legend:
[1] = tested on: mTORC2; experiment: Western blot of mTORC2 signaling in H9C2 rat cardiomyocytes; format: cell-based; settings: H9C2 cells, FIGS. 2C; for time course of inhibition of mTORC2 (decreased phosphorylation of Akt (S473)): 2E; for mTORC2 activity (phosphorylation of Akt (S473)): 2F
Protocol: (§1) H9C2 rat cardiomyocyte cells were grown in DMEM media (ATCC #30-2002) supplemented with 10% FBS. Stock solutions of MJX series compounds were prepared in DMSO, while the stock solution of α-ketobutyrate was prepared in dH2O. Cells were seeded in the afternoon at 70-80% confluency and the next morning treated with the indicated concentrations of compounds for the indicated times. Cells were then washed with ice-cold PBS and immediately lysed on ice with RIPA buffer. Lysates were clarified at 18,000 g at 4° C., the supernatants transferred to new tubes, mixed with […] of 5×SDS-PAGE loading buffer, and heated for 10 minutes at 70° C. Lysates were then separated by SDS-PAGE using 4-12% Bis-Tris gels (Life Technologies) and transferred to PVDF membranes (Millipore) for western blotting analysis. All antibodies were purchased from Cell Signaling.

[2] = tested on: AMPK signaling pathway; experiment: Western blot of AMPK signaling in H9C2 rat cardiomyocytes; format: cell-based; settings: H9C2 cells; for time course of AMPK activation: 15 min to 8 hr, FIGS. 2C, 2E; for time course of AMPK activation / activation of AMPK signaling pathway (phosphorylation of AMPK targets ACC (S79) and ULK1 (S555)): 2F; for activation of AMPK signaling pathway (phosphorylation of AMPK targets ACC (S79) and ULK1 (S555)): western blot, FIGS. 2A, 2B; for activation of AMPK, dose-response: FIG. 2D
Protocol: as §1

[3] = tested on: mTORC1; experiment: Western blot of mTORC1 signaling in H9C2 rat cardiomyocytes; format: cell-based; settings: H9C2 cells; for mTORC1 signaling (phosphorylation of mTORC1 targets S6K (T389), 4E-BP1 (S65), ULK1 (S757)): western blot, FIGS. 2A, 2B, 2C, 2F
Protocol: as §1

[4] = tested on: Caenorhabditis elegans; experiment: Lifespan of N2 wildtype C. elegans on NGM treatment plates containing compound; format: in vivo; parameters: mean lifespan: unit not given here; settings: for % increase (mean lifespan): vs DMSO; for effect on C. elegans lifespan: FIGS. 1A-1C, result in words
Protocol: The anti-aging effects of MJX001-MJX005 were tested in the nematode Caenorhabditis elegans. Worms of the N2 wildtype strain of C. elegans were age-synchronized by performing either a timed egg lay or an egg preparation (mix <100 gravid worms in 70 μl M9 buffer, 25 μl bleach and 5 μl 10 N NaOH). Once the worms reached day 1 of adulthood, they were picked onto NGM treatment plates containing 1.5% dimethyl sulfoxide (DMSO; Sigma D8418), 49.5 μM 5-fluoro-2′-deoxyuridine (FUDR, Sigma F0503), and either […] (Sigma K401) or one of the MJX series test compounds. All plates were adjusted to pH 6.0 (i.e., the same pH as the control plates) if necessary by the addition of NaOH. Once dry, the plates were seeded with OP50 E. coli as the C. elegans food source. […] Worms were moved to new plates every 4 days. All worms were maintained in a single humidified, temperature-controlled incubator at 20° C. Lifespan curves were generated and statistical analyses performed.

[5] = tested on: H9C2 Cells; experiment: [U-13C6]glucose tracing of metabolites in H9C2 cells (LC-MS); format: cell-based, rat; settings: 24 h, FIG. 4
Protocol: To evaluate the metabolic pathways in use, H9C2 Cells were cultured with designated compounds and medium containing [U-^13C6]glucose for 24 h. Metabolites were extracted for LC-MS detection.

[6] = tested on: mTOR signaling; experiment: Western blot of mTOR signaling in H9C2 rat cardiomyocytes; format: cell-based; settings: H9C2 cells; for time course of inhibition of mTOR signaling: 15 min to 8 hr, FIGS. 2C, 2E, 2F; for inhibition of mTOR signaling, dose-response: FIG. 2D
Protocol: as §1

[7] = tested on: H9C2 Cells; experiment: Proliferation of H9C2 cells; format: cell-based, rat; settings: FIGS. 6A & 6B
[8] = tested on: C57BL/6 mice; settings: stated as known; cited from earlier work
[9] = 2 mM, FIG. 1B experiment, DMSO control 15.3
[10] = 4 mM, FIG. 1B experiment, DMSO control 15.3
[11] = after only 15 minutes treatment, FIG. 2C
[12] = 4 mM, FIG. 8 experiment, DMSO control 15.3

Row | Molecule | time course of inhibition of mTORC2 (decreased phosphorylation of Akt (S473)) [1] | time course of AMPK activation [2] | activation of AMPK signaling pathway (phosphorylation of AMPK targets ACC (S79) and ULK1 (S555)) [2] | mTORC1 signaling (phosphorylation of mTORC1 targets S6K (T389), 4E-BP1 (S65), ULK1 (S757)) [3] | mean lifespan [4, 9] | % increase (mean lifespan) ([4]; 2 mM, FIG. 1B experiment) [%] | mean lifespan [4, 10] | % increase (mean lifespan) ([4]; 4 mM, FIG. 1B experiment) [%] | effect on C. elegans lifespan [4] | time course of inhibition of mTOR signaling [6] | mTORC2 activity (phosphorylation of Akt (S473)) [1] | mean lifespan [4, 12] | % increase (mean lifespan) ([4]; 4 mM, FIG. 8 experiment) [%] | further results
1 | C/C=c1\oc(=O)/c(=C/C)oc1=O [MJX004] | strongest after just 15 and 30 minutes treatment, but recovered to normal levels by 2 hr and beyond | less potent but more prolonged | activate the AMPK pathway | inhibited mTORC1 signaling | 20.0 | 30.9 | 21.1 | 38.0 | dose-dependent increases in lifespan | less potent but more prolonged; also recorded: more prolonged effect on mTOR signaling | – | – | – | activation of AMPK ([2]; at 4 hr, FIG. 2E): strong activation of AMPK; inhibition of mTORC1 ([3]; at 4 and 8 hr, FIG. 2E): sustained inhibition of mTORC1; mean lifespan ([4]; 1 mM, FIG. 1B experiment, DMSO control 15.3): 19.7; % increase (mean lifespan) ([4]; 1 mM, FIG. 1B experiment): 28.7%; M2 citrate using [U-13C6]glucose as a tracer [5]: decreased M2 citrate; effect on proliferation (inhibition), rank order [7]: strongest effect on proliferation
2 | C/C=C1\OC(CC)(C(=O)OCC)OC1=O (stereo not shown) [MJX005] | strongest after just 15 and 30 minutes treatment, but recovered to normal levels by 2 hr and beyond | greatly diminished by 2 hr and largely absent at 4 hr and 8 hr | activate the AMPK pathway | inhibited mTORC1 signaling; also recorded: inhibits both mTORC1 and mTORC2 activity | 18.2 | 19.1 | 19.6 | 27.7 | dose-dependent increases in lifespan | greatly diminished by 2 hr and largely absent at 4 hr and 8 hr; also recorded: only inhibited mTOR signaling transiently | inhibits both mTORC1 and mTORC2 activity | – | – | activation of AMPK compared with α-ketobutyrate [2]: more potent activation of AMPK than α-ketobutyrate; activation of AMPK, dose-response ([2]; 0.8 mM or lower): no significant effect; activation of AMPK, dose-response ([2]; 1.6 mM): modest effect; activation of AMPK, dose-response ([2]; 3.2 mM): strong effect; activation of AMPK [2, 11]: strong activation of AMPK; inhibition of mTOR signaling, dose-response ([6]; 0.8 mM or lower): no significant effect; inhibition of mTOR signaling, dose-response ([6]; 1.6 mM): modest effect; inhibition of mTOR signaling, dose-response ([6]; 3.2 mM): strong effect; inhibition of mTOR signaling [6, 11]: inhibition of mTOR signaling
3 | C/C=C1\OC(CCC(=O)OCC)(C(=O)OCC)OC1=O (stereo not shown) [MJX006] | – | highest at 15 and 30 minutes, is weaker but still evident at 1 hour, and has largely returned to baseline by 2 hours | rapidly promote AMPK activity | inhibit mTORC1 and mTORC2 signaling | – | – | – | – | – | exhibited similar kinetics; also recorded: only inhibited mTOR signaling transiently | inhibit mTORC1 and mTORC2 signaling | 17.4 | 13.9 | mean lifespan ([4]; 1 mM, FIG. 8 experiment, DMSO control 15.3): 16.2; % increase (mean lifespan) ([4]; 1 mM, FIG. 8 experiment): 6.3%; mean lifespan ([4]; 2 mM, FIG. 8 experiment, DMSO control 15.3): 19.0; % increase (mean lifespan) ([4]; 2 mM, FIG. 8 experiment): 24.2%; N2 C. elegans lifespan ([4]; all three tested doses (1, 2, 4 mM), FIG. 8, result in words): extended significantly
4 | α-ketobutyric acid (2-oxobutanoic acid) [aKB, reference compound] | – | – | – | – | – | – | 20.4 | 33.3 | – | – | – | 19.1 | 24.6 | hair loss in old C57BL/6 mice [8]: prevents hair loss; hair regrowth in mice [8]: stimulates hair regrowth; mean lifespan ([4]; 4 mM, FIG. 1A experiment, DMSO control 11.7): 17.7; % increase (mean lifespan) ([4]; 4 mM, FIG. 1A experiment): 51.0%; mean lifespan ([4]; 4 mM, FIG. 1C experiment, DMSO control 14.8): 19.7; % increase (mean lifespan) ([4]; 4 mM, FIG. 1C experiment): 33.3%
